biological target: T1, α4β7 (Homo sapiens, UniProt P13612+P26010); test: Cell adhesion assay, RPMI8866 cells adhering to MAdCAM coated plates; format: cell-based; conditions: RPMI8866 cells on recombinant human MAdCAM coated plates; read-out: CA Assay (Example 7) IC50
T1 construct: α4β7 expressing cells (RPMI-8866); endogenous in cells; host or cells: RPMI 8866
T1 sequence (P13612 34-1032): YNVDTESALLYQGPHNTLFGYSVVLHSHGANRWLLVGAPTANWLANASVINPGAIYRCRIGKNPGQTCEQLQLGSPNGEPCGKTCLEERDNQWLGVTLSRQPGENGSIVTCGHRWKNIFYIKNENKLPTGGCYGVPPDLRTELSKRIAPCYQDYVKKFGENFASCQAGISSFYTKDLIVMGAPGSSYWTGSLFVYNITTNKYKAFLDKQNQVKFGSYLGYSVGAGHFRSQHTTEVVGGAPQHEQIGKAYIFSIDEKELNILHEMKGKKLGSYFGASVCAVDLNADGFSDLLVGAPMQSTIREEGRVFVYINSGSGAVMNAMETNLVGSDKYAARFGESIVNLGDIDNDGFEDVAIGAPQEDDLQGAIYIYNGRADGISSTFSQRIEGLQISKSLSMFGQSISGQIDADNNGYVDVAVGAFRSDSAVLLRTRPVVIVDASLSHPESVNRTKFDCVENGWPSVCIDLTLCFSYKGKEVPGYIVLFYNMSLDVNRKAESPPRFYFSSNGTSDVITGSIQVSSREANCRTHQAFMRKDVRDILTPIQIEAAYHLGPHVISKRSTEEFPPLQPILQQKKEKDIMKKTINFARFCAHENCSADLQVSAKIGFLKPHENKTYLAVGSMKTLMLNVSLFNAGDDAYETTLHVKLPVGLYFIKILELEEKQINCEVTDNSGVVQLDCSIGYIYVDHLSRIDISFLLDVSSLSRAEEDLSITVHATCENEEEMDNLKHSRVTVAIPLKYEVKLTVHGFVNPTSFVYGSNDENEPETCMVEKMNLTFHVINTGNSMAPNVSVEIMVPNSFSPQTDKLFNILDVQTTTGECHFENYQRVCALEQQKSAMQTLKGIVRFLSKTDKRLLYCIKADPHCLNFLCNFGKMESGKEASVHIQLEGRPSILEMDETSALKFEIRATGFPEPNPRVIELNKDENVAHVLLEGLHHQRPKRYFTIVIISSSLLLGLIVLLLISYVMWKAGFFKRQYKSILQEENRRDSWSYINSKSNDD
T1 sequence (P26010 20-798): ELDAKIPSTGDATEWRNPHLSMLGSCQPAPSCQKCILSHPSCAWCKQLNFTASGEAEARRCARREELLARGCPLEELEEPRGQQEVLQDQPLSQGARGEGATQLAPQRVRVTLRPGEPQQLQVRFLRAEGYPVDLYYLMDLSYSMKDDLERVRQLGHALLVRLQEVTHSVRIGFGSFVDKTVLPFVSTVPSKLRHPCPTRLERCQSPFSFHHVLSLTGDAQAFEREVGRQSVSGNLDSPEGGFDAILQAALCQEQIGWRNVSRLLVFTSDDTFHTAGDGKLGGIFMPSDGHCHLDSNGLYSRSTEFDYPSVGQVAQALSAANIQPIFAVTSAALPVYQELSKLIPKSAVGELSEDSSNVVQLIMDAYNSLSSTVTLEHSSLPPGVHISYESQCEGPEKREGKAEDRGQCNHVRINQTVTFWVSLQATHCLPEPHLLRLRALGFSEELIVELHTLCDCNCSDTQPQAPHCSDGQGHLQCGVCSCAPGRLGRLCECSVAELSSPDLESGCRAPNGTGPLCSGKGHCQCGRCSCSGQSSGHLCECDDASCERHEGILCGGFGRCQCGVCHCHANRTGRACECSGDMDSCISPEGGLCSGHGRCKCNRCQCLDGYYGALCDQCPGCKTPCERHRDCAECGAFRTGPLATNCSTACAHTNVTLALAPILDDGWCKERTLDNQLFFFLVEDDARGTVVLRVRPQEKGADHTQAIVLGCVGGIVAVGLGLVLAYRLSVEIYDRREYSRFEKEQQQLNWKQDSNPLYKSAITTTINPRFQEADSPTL
Experimental: Three in vitro assays were used to examine the α4β7 mechanistic process used by cells: 1) ligand:receptor affinity, 2) the avidity of those interactions on a cell's surface, and 3) how those interactions fare under an imposing force. In Example 5, a Fluorescence Polarization (FP) assay is used to measure compound activity through binding competition with the fluorescein-labeled peptide. In Example 6, the potency of compounds against α4β7 is measured in the cell-based ligand binding assay (LBA), using RPMI 8866 cells incubated with the compound samples in competition with soluble MAdCAM-1 ligand. In Example 7, activity of compounds is evaluated in a cell adhesion assay that mechanistically tests what occurs in vivo when trafficking cells utilize α4β7 to adhere to MAdCAM-1 expressing HEVs of the gut during the extravasation process. In the cell adhesion assay of Example 7, a MAdCAM1-(Fc) is coated on plastic, and α4β7 expressing cells (RPMI-8866) are allowed to adhere to the coated surface in the presence of the test compounds. Next, the force of washing with buffer is applied to cells thereby testing the strength of that adhesion. Unattached cells are removed and the remaining adherent cells are quantified.
Example 7 describes a cell adhesion assay.
To each well of a 96 well plate, 100 ug of recombinant human MAdCAM in 100 ul PBS is added and incubated overnight at 4° C. After incubation MAdCAM is removed by aspiration and 200 ul of PBS+1% BSA is added to block the plate for 2 hours at 37° C. and 5% CO2. During this incubation dilution curves of compound are made in 100% DMSO in 96 well V bottom plates. 1.75 ul of diluted compounds are then transferred to a new 96 well U bottom plate containing 20 ul of assay media (phosphate free DMEM+25 mM HEPES+1% BSA). To this an additional 155 ul of assay media is added with mixing by pipetting up and down. This mixture is allowed to incubate for 15 minutes at 37° C. and 5% CO2. After incubation 175 ul of assay media containing 2e6/mL RPMI8866 cells is added to compound containing wells without mixing and plate is allowed to incubate for another 15 minutes at 37° C. and 5% CO2. During this incubation MAdCAM coated plates are removed from incubator and washed twice with 200 ul PBS+0.1% BSA. […] This plate is then incubated at 37° C. and 5% CO2 for 1 hour. After incubation plates are washed twice with 200 ul and once with 50 ul of phenol free RPMI+1% BSA. A final 50 ul of phenol free RPMI+1% BSA is added to wells after last wash. Next 50 ul of Promega cell titer glow is added to the wells. Plate is incubated on shaker for 2 minutes at 200 RPM followed by another 8 minutes off shaker before having the luminescence read on a Biotek Citation 5 plate reader. Raw data is converted to % inhibition compared to bottom of curve and analyzed using a 4-parameter non linear curve in Prism to determine IC50 and IC90.

First: Cc1cc(C)c(-c2cc(C(F)(F)F)c(F)c([C@H](CC(=O)O)NC(=O)[C@H](CC(C)C)n3cc(CCCN(C)C)c(C(F)(F)F)cc3=O)c2F)c(C)c1 [HZ-P2, (3S)-3-(2,4-difluoro-2′,4′,6′-trimethyl-5-(trifluoromethyl)biphenyl-3-yl)-3-(2-(5-(3-(dimethylamino)propyl)-2-oxo-4-(trifluoromethyl)pyridin-1(2H)-yl)-4-methylpentanamido)propanoic Acid]
Second: Cc1cc(C)c(-c2cc(C(F)(F)F)c(F)c([C@H](CC(=O)O)NC(=O)[C@H](CC(C)C)n3cc(CCN(C)C)c(C(F)(F)F)cc3=O)c2F)c(C)c1 [IF-P2, (3S)-3-(2,4-difluoro-2′,4′,6′-trimethyl-5-(trifluoromethyl)-[1,1′-biphenyl]-3-yl)-3-(2-(5-(2-(dimethylamino)ethyl)-2-oxo-4-(trifluoromethyl)pyridin-1(2H)-yl)-4-methylpentanamido)propanoic Acid]
The IC50 of the first is higher: 5 to 10 nM for the first, less than 5 nM for the second. The second is the more potent here.

First: Cc1cc(C)c(-c2cc(C3CC3)c(F)c([C@H](CC(=O)O)NC(=O)[C@H](CC(C)C)n3cc(CCN4CCC4)c(C(F)(F)F)cc3=O)c2F)c(C)c1 [HM-P2, (3S)-3-(2-(5-(2-(azetidin-1-yl)ethyl)-2-oxo-4-(trifluoromethyl)pyridin-1(2H)-yl)-4-methylpentanamido)-3-(5-cyclopropyl-2,4-difluoro-2′,4′,6′-trimethylbiphenyl-3-yl)propanoic Acid]
Second: Cc1ccc(F)c(C)c1-c1cc(C2CC2)c(F)c([C@H](CC(=O)O)NC(=O)[C@H](CC(C)C)n2cc(CCN3CCC3)c(C(F)(F)F)cc2=O)c1F [HH-P2, (3S)-3-(2-(5-(2-(azetidin-1-yl)ethyl)-2-oxo-4-(trifluoromethyl)pyridin-1(2H)-yl)-4-methylpentanamido)-3-(5-cyclopropyl-2,3′,4-trifluoro-2′,6′-dimethyl-[1,1′-biphenyl]-3-yl)propanoic Acid]
The IC50 of the first is lower: less than 5 nM for the first, 5 to 10 nM for the second.

`Cc1cc(F)c(C)c(C)c1-c1cc(C(F)(F)F)c(F)c([C@H](CC(=O)O)NC(=O)[C@H](CC(C)C)n2cc(CCN3CCC3)c(C(F)(F)F)cc2=O)c1F` [KT-P2, (3S)-3-(2-(5-(2-(azetidin-1-yl)ethyl)-2-oxo-4-(trifluoromethyl)pyridin-1(2H)-yl)-4-methylpentanamido)-3-(2,4,4′-trifluoro-2′,3′,6′-trimethyl-5-(trifluoromethyl)-[1,1′-biphenyl]-3-yl)propanoic Acid] and `Cc1cc(C)c(-c2cc(C(F)(F)F)c(F)c([C@H](CC(=O)O)NC(=O)[C@H](CC(C)C)n3cc(CCN4CCC4)c(C(F)(F)F)cc3=O)c2F)c(C)c1` [IG-P2, (3S)-3-(2-(5-(2-(azetidin-1-yl)ethyl)-2-oxo-4-(trifluoromethyl)pyridin-1(2H)-yl)-4-methylpentanamido)-3-(2,4-difluoro-2′,4′,6′-trimethyl-5-(trifluoromethyl)biphenyl-3-yl)propanoic Acid] cannot be ordered by IC50: less than 5 nM for the first, less than 5 nM for the second.

First: Cc1ccn([C@@H](NC(C)C)C(=O)N[C@@H](CC(=O)O)c2cncc(-c3c(C)cccc3C)c2)c(=O)c1 [Example C-7, reference compound]
Second: Cc1cc(-c2c(C)cc(F)cc2C)cc([C@H](CC(=O)O)NC(=O)[C@H](CC(C)C)n2cc(CCN(C)C)cc(C(F)F)c2=O)c1F [I-P2, (3S)-3-(4,4′-difluoro-2′,5,6′-trimethyl-[1,1′-biphenyl]-3-yl)-3-(2-(3-(difluoromethyl)-5-(2-(dimethylamino)ethyl)-2-oxopyridin-1(2H)-yl)-4-methylpentanamido)propanoic Acid]
The IC50 of the first is higher: 10 to 50 nM for the first, less than 5 nM for the second.

First: Cc1cc(C2CC2)cc(C)c1-c1cc(C(F)(F)F)c(F)c([C@H](CC(=O)O)NC(=O)[C@H](CC(C)C)n2cc(CCCN(C)C)c(C(F)(F)F)cc2=O)c1F [HU-P2, (3S)-3-(4′-cyclopropyl-2,4-difluoro-2′,6′-dimethyl-5-(trifluoromethyl)-[1,1′-biphenyl]-3-yl)-3-(2-(5-(3-(dimethylamino)propyl)-2-oxo-4-(trifluoromethyl)pyridin-1(2H)-yl)-4-methylpentanamido)propanoic Acid]
Second: Cc1cc(F)cc(C)c1-c1cc(C(F)(F)F)c(F)c([C@H](CC(=O)O)NC(=O)[C@H](CC(C)C)n2cc(CCCN(C)C)c(C(F)(F)F)cc2=O)c1F [HW-P2, (3S)-3-(2-(5-(3-(dimethylamino)propyl)-2-oxo-4-(trifluoromethyl)pyridin-1(2H)-yl)-4-methylpentanamido)-3-(2,4,4′-trifluoro-2′,6′-dimethyl-5-(trifluoromethyl)-[1,1′-biphenyl]-3-yl)propanoic Acid]
The IC50 of the first is higher: 5 to 10 nM for the first, less than 5 nM for the second.

`Cc1cc(C)c(-c2cc(C)c(F)c([C@H](CC(=O)O)NC(=O)[C@H](CC(C)C)n3cc(CCCN(C)C)c(C(F)(F)F)cc3=O)c2F)c(C)c1F` [IW-P2, (3S)-3-(2-(5-(3-(dimethylamino)propyl)-2-oxo-4-(trifluoromethyl)pyridin-1(2H)-yl)-4-methylpentanamido)-3-(2,3′,4-trifluoro-2′,4′,5,6′-tetramethyl-[1,1′-biphenyl]-3-yl)propanoic Acid] gave an IC50 of 5 to 10 nM.

From patent US11370773B1, “Inhibiting human integrin (alpha-4) (beta-7)” (Morphic Therapeutic, Inc., priority 2019, dated 2022)
